This is an account of results in patent US10774084B2, “Adenine derivatives and their use as UV-photoprotective agents” (UNIVERZITA PALACKEHO V OLOMOUCI, priority 2015, dated 2020).

In series [1] the test system is HaCaT. The series is described as follows: In vitro phototoxicity test (neutral red) on HaCaT. In kind it is cell-based, human. The protocol:
Spontaneously Immortalized Aneuploid Human Keratinocyte Cell Line (HaCaT) was bought from CLS (Eppeheim, Germany) and used as an in vitro model. For all experiments the keratinocytes were seeded onto 96-well plates at a density of 1.6×10^5 cells/ml (0.2 ml per well) of growth medium (DMEM supplemented with fetal bovine serum (10%), penicillin ([…]) and streptomycin (100 U/ml)).
Test substances included compounds number 3, 9, 15 and 20. Compounds were dissolved in DMSO and then diluted in serum free medium (DMEM supplemented penicillin (100 mg/ml) and streptomycin (100 U/ml)). After 24 h incubation was growth medium changed to serum free medium containing test compound or DMSO (negative control). The final applied concentrations range was 3.9-125 μmol/l. As a control, serum free medium supplemented with appropriate concentration of DMSO (0.5%, v/v) was used. In parallel with test compound, chlorpromazine (CPZ; 0.8-50 μmol/l) was used as a known phototoxic compound. The test compound was in parallel applied on two 96-well plates with HaCaT. After 60 minutes incubation with test compound medium was discarded, cells were washed two-times with PBS and PBS supplemented with glucose (1 mg/ml) was applied. A plate was then exposed to a non-cytotoxic dose of UVA radiation (5.0 J/cm2) using a solar simulator SOL 500 (Dr. Hoenle Technology, Germany) equipped with a H1 filter transmitting wavelengths of 320-400 nm. Intensity of UVA radiation was evaluated before each irradiation by UVA-meter. A control (non-irradiated) plate was for the period of irradiation incubated in dark. After UVA exposure PBS with glucose was discarded and serum free medium was applied. After 24 hours (37° C., 5% CO2) cell damage was evaluated by neutral red (NR) incorporation into viable cells. Medium was discarded and NR solution (0.03% w/v, PBS) was applied. After 60 minutes NR solution was discarded, cells were fixed with a mixture of formaldehyde (0.5%, v/v) and CaCl2 (1%, m/v) in ratio 1:1 and then NR was dissolved in methanol (50%, v/v) with acetic acid (1%, v/v). After 5 minutes of intensive shaking absorbance was measured at 540 nm. Experiments were performed in four independent repetition with use of cells from four donors to minimize individual sensitivity of donor cells. Phototoxic effect was evaluated as % of viability of control cells that was calculated from experimental data (absorbance) according to the following equation: […]
AS . . . absorbance of sample (cells pre-incubated with test compound in serum free medium and irradiated)
AC . . . absorbance of control (cells pre-incubated with DMSO in serum free medium and irradiated)
AB . . . absorbance of background (extraction solution)

Series [2] concerns BJ human fibroblast cells. The series can be described thus: Calcein AM cytotoxicity assay. In kind it is cell-based. The note with it: 72 hrs. The text has this:
(§1) One of the parameters used as the base for cytotoxic analysis is metabolic activity of viable cells. Microtiter assay, which uses the Calcein AM, is now widely used to quantify cell proliferation and cytotoxicity. The quantity of […] Calcein AM corresponds to the number of viable cells in culture. The cell lines of breast cancer (MCF-7), human erythromleukemia (K562), BJ human fibroblast cells (BJ) and human keratinocyte cell line (HaCaT) were used for routine screening of cytotoxicity of the compounds. The cells were maintened in Nunc/Corning 80 cm^2 plastic bottles and grown in media for cell culture (DMEM containing 5 g/l of glucose, 2 mM of glutamin, 100 U/ml of penicilin, 100 μg/ml of streptomycin, 10% of fetal bovine serum and sodium hydrogencarbonate). Cell suspensions were diluted according to cell types and according to expected final cell density (10^4 of cells per well according to characteristics of cell growth), pippeted 80 μl of cell suspension on 96-well microtiter plates. Innoculates were stabilized by 24 hrs preincubation at 37° C. in CO2. Particular concentrations of tested compounds were added in time zero as 20 μl aliquotto wells of microtiter plates. Usually, the compounds were diluted into six concentrations in four-fold dilution series. In routine testing, the highest well concentration was 166.7 μM, of change dependent on the substance. All drug concentrations were examined in duplicates. The incubation of cells with tested derivatives lasted 72 hrs at 37° C., 100% humidity and in the atmosphere of CO2. At the end of the incubation period, the cells were tested and analysed according to the addition of Calcein AM (Molecular probes) solution and the incubation lasted for next 1 hour. Fluorescence (FD) was measured using Labsystem FIA reader Fluorskan Ascent (Microsystems). The survival of tumor cells (The tumor cell survival-TCS) was counted according to equation: […](FDwell with derivative/FDcontrol well)×100%. The value of GI50, that is equal to the concentration of compound at which 50% of tumour cells are terminated. To evaluate the antitumor activity was tested toxicity of new derivatives on panel of cell lines of different histogenetic and species origin (Tab. 6, G150 concentration given in μM). […] Effective derivatives killed tumor cells in concentrations close to 0.1 to 50. None of the newly prepared compounds only reached the value.

In series [3] the test system is HaCaT. The series is described as follows: Calcein AM cytotoxicity assay. To be noted: Homo sapiens, 72 hrs. In kind it is cell-based.
Excerpt: as §1

Series [4] deals with K562. The series is described as follows: Calcein AM cytotoxicity assay. In kind it is cell-based. To be noted: Homo sapiens, 72 hrs.
Excerpt: as §1

The subject of series [5] is MCF-7. The series can be described thus: Calcein AM cytotoxicity assay. In kind it is cell-based. To be noted: Homo sapiens, MCF7, 72 hrs.
Excerpt: as §1

SMILES strings stand for the structures. Bounds are passed on as bounds.

On to `CN(C)CCCN1c2ccccc2Sc2ccc(Cl)cc21` [chlorpromazine, reference compound], for which the “viability of HaCaT cells” value is given as “below 80 % of control” in series [1] (UVA+, 3.1 μmol/l) and “below 70%” in series [1] (UVA−, 25 μmol/l).

The term GI50 denotes the concentration at which growth is held to half of that of the control. Regarding `Clc1nc(NCC2CCCO2)c2ncn(C3CCCO3)c2n1` (centres unmarked) [Compound 20, 2-chloro-6-(tetrahydrofuran-2-ylmethylamino)-9-(tetrahydrofuran-2-yl)purine], the GI50 in series [2], in series [3], in series [4] and in series [5] was above 100 µM each time. Further, the HaCaT viability is recorded as 104.6 % control in series [1] (+UVA 5.0 J/cm2, 3.9 μmol/l); 112.1 % control in series [1] (+UVA 5.0 J/cm2, 7.8 μmol/l); 110.1 % control in series [1] (+UVA 5.0 J/cm2, 15.6 μmol/l); 121.4 % control in series [1] (+UVA 5.0 J/cm2, 31.3 μmol/l); 125.8 % control in series [1] (+UVA 5.0 J/cm2, 62.5 μmol/l); 125.9 % control in series [1] (+UVA 5.0 J/cm2, 125 μmol/l). Also, the HaCaT viability in series [1] (−UVA, 3.9 μmol/l) amounted to 103.5 % control; in series [1] (−UVA, 7.8 μmol/l), 102.9 % control; in series [1] (−UVA, 15.6 μmol/l), 104.1 % control; in series [1] (−UVA, 31.3 μmol/l), 108.6 % control; in series [1] (−UVA, 62.5 μmol/l) it was 110.7 % control; in series [1] (−UVA, 125 μmol/l) it was 110.5 % control.

Take `Clc1nc(NCc2ccco2)c2ncn(C3CCCO3)c2n1` (centres unmarked) [Compound 15, 2-chloro-6-furfurylamino-9-(tetrahydrofuran-2-yl)purine]: the HaCaT viability in series [1] (+UVA 5.0 J/cm2, 3.9 μmol/l) turned out to be 116.4 % control; in series [1] (+UVA 5.0 J/cm2, 7.8 μmol/l), 119.9 % control; in series [1] (+UVA 5.0 J/cm2, 15.6 μmol/l) it was 119.9 % control; in series [1] (+UVA 5.0 J/cm2, 31.3 μmol/l) it was 118.8 % control; in series [1] (+UVA 5.0 J/cm2, 62.5 μmol/l), 115.7 % control; in series [1] (+UVA 5.0 J/cm2, 125 μmol/l) it was 104 % control. Further, the HaCaT viability was found to be 106.5 % control in series [1] (−UVA, 3.9 μmol/l); 107.4 % control in series [1] (−UVA, 7.8 μmol/l); 108.6 % control in series [1] (−UVA, 15.6 μmol/l); 108.6 % control in series [1] (−UVA, 31.3 μmol/l); 109.2 % control in series [1] (−UVA, 62.5 μmol/l); 105 % control in series [1] (−UVA, 125 μmol/l).

As for `OCc1ccc(CNc2ncnc3c2ncn3C2CCCO2)o1` (centres unmarked) [Compound 3, 6-(5-hydroxymethylfuran-2-ylmethylamino)-9-(tetrahydrofuran-2-yl)purine], the HaCaT viability in series [1] (+UVA 5.0 J/cm2, 3.9 μmol/l) was 103.88 % control; in series [1] (+UVA 5.0 J/cm2, 7.8 μmol/l), 111.08 % control; in series [1] (+UVA 5.0 J/cm2, 15.6 μmol/l), 107.93 % control; in series [1] (+UVA 5.0 J/cm2, 31.3 μmol/l), 118.43 % control; in series [1] (+UVA 5.0 J/cm2, 62.5 μmol/l), 120.78 % control; in series [1] (+UVA 5.0 J/cm2, 125 μmol/l) it was 124.66 % control. The HaCaT viability in series [1] (−UVA, 3.9 μmol/l) is reported as 100.1 % control; in series [1] (−UVA, 7.8 μmol/l) it was 100.4 % control; in series [1] (−UVA, 15.6 μmol/l) it was 102.1 % control; in series [1] (−UVA, 31.3 μmol/l), 107.8 % control; in series [1] (−UVA, 62.5 μmol/l), 106.4 % control; in series [1] (−UVA, 125 μmol/l), 109.5 % control.

In the case of `c1csc(CNc2ncnc3c2ncn3C2CCCO2)c1` (centres unmarked) [Compound 9, 6-(thiophen-2-ylmethylamino)-9-(tetrahydrofuran-2-yl)purine], the GI50 in series [2], in series [3], in series [4] and in series [5] was above 100 µM throughout. Moreover, the HaCaT viability in series [1] (+UVA 5.0 J/cm2, 3.9 μmol/l) worked out at 122.7 % control; in series [1] (+UVA 5.0 J/cm2, 7.8 μmol/l), 124.2 % control; in series [1] (+UVA 5.0 J/cm2, 15.6 μmol/l) it was 120.5 % control; in series [1] (+UVA 5.0 J/cm2, 31.3 μmol/l), 128.1 % control; in series [1] (+UVA 5.0 J/cm2, 62.5 μmol/l), 129.9 % control; in series [1] (+UVA 5.0 J/cm2, 125 μmol/l), 126.6 % control. The HaCaT viability in series [1] (−UVA, 3.9 μmol/l) stood at 101 % control; in series [1] (−UVA, 7.8 μmol/l), 101.1 % control; in series [1] (−UVA, 15.6 μmol/l), 100.4 % control; in series [1] (−UVA, 31.3 μmol/l), 101.8 % control; in series [1] (−UVA, 62.5 μmol/l), 103.9 % control; in series [1] (−UVA, 125 μmol/l), 103.4 % control.

For the molecule `c1nc(NCC2CCCO2)c2ncn(C3CCCO3)c2n1` (centres unmarked) [Compound 1, 6-(tetrahydrofuran-2-ylmethylamino)-9-(tetrahydrofuran-2-yl)purine], the GI50 in series [2], in series [3], in series [4] and in series [5] was above 100 µM in each case.
